Assay results taken from patent US10517952B2, “Nucleophile-triggered degradable materials and methods of making and using the same” (GEORGIA TECH RESEARCH CORPORATION, priority 2014, dated 2019).

What was measured:
Type in all cases: physicochemical
[1] = Erosion of swollen hydrogels (BODIPY erosion probe, time-lapse photography); conditions: poorly controlled BODIPY labeling protocol
Excerpt: Degradation behavior of PEG-OND hydrogels under swelling conditions was investigated by labeling 3% of the 4-PEG-SH thiols with a BODIPY fluorophore via maleimide coupling before gelation. Gels prepared from this material are expected to have slightly lower crosslink densities and to degrade sooner when compared to gels formed without the erosion probe (FIG. 19). However, the probe-labeled macromer allowed convenient monitoring and comparison of erosion behavior under conditions relevant for biological applications. An increase in absorbance (504 nm) of the swelling buffer was observed as pieces containing the labeled PEG-thiol components were detached from the gel by rDA fragmentation (FIG. 2). […] Using combinations of linkers, it was possible to produce hydrogels with release profiles tuned between those of gels prepared from a single linker (FIG. 2C).
The 3.76 wt % solution of BODIPY-labeled 4-PEG-SH prepared above was used to form hydrogels using a method identical to unlabeled gels. Briefly, BODIPY-labeled 4-PEG-SH was combined with DMSO stocks of multivalent ONDs at equimolar concentration of thiol and electrophile. […] The absorbance of the supernatant at 504 nm was measured immediately to obtain a baseline measurement (t=0 hours), and the samples were placed into a 37° C. incubator. The absorbance of the swelling supernatant was monitored periodically by removal of 1 mL of buffer into a cuvette and measuring absorbance of the sample at 504 nm. […] This process was repeated for each sample until gel degradation was complete and the absorbance at 504 nm stabilized (100% dye released). In order to estimate the fraction of dye released from the non-degradable gel formed with bi s-EONB 8, a mock endpoint sample consisting of BODIPY-labeled 4-PEG-SH diluted to 3.5 wt % was prepared, and the absorbance at 504 nm was measured. […] The absorbance values collected over the course of the experiment were divided by the absorbance value measured after gel disintegration to obtain fractional dye release versus time. […]
The time at which the glass bead reached the bottom of the tube was recorded. […]

[2] = Oscillatory rheology of PEG-OND hydrogels; conditions: pH 7.2, 37° C., strain 1%, 1 rad/sec, after 2-3 hours
Procedure: Oscillatory rheology was used to assess the viscoelastic properties of selected PEG-OND hydrogels. […] The truncated cone was then brought in contact with the bis-EONB/4-PEG-SH mixture before setting of the gel by positioning the tool at the measuring position. The sample was inspected for spillovers and trimmed as required. A preliminary preshearing step consisting of 30 seconds at 0.1% strain and ω=0.01 rad/s was performed to ensure good contact with the gel sample. The elastic (storage) and viscous (loss) moduli, G′ and G″, respectively, were then measured as a function of time for a constant strain of 1% and an angular frequency of 1 rad/sec. The ability to store energy is described by G′, while the amount of energy dissipated is related with G″. It was observed that the sample experienced a rapid transformation from an initial state in which G′ was not much larger than G″ to a state in which G′ was clearly predominant, as shown in FIG. 5; this is consistent with gelation. The observed transformation happened in the first few minutes after preparation, even when the hydrogel continued to rigidify for up to 2-3 hours.
The linear regime of this sample was determined by performing an oscillatory strain sweep at 37° C. The frequency sweep shown in the main text was thus performed in the linear region.
[…] In both experiments, G′>>G″.

[3] = Gelation of 4-PEG-SH with OND linkers, gelation time by inversion test; conditions: neutral water, 17% DMSO, stoichiometric triethylamine added, room temperature
Procedure: PEG-OND hydrogels were prepared by mixing tetravalent thiol-terminated PEG (4-PEG-SH, Mw˜2,500 Da for each arm) at 3.5 weight percent and multivalent OND linkers at equimolar concentration of thiol and electrophile in phosphate buffer containing 7% DMSO by volume (FIG. 42). The reactions were mixed briefly and the gel was allowed to cure at temperature or 37° C. Gelation time was recorded as the point at which the sample no longer flowed upon inversion of the reaction vessel.
Trial gelations were performed by premixing a solution of linker 7a with four-armed thiol-terminated poly(ethylene glycol) (4-PEG-SH. Mn=10,000) in neutral water containing 17% DMSO by volume. The overall concentration of PEG macromer was varied from 0.4 wt % to 8.3 wt % while maintaining an equimolar ratio of thiol to electrophile. Under these conditions, no gels formed on standing at room temperature for five minutes.
Based on empirical observations made in these trials, subsequent gels were prepared at room temperature from 3.5 wt % 4-PEG-SH solutions in phosphate buffers containing 7% DMSO at equimolar concentrations of thiol and OND electrophile. Mixtures were mixed briefly with a vortex mixer, and the reaction vial was periodically tilted or inverted. Gelation time was recorded when the sample no longer flowed and was self-supporting. […] Gelation time at 37° C. was determined by pre-warming 4-PEG-SH macromer and OND stock solutions in a 37° C. water bath. Gel components were combined and mixed briefly by pipetting, and the sample was held in the water bath. Gelation time was determined by the inversion test, as described above.
The labeled protein solutions prepared as described in the previous section were diluted three-fold with pH 7.4 100 mM phosphate buffer and used to dissolve the 4-PEG-SH macromer at 3.76 wt %. This solution was used in an identical manner as pure 4-PEG-SH solution for the purpose of forming PEG-OND hydrogels (FIG. 45). All samples formed self-supporting hydrogels within 1 min after mixing, as determined by the inversion test.

4-PEG-SH concentration giving instantaneous gelation [3] [wt %] | Structure (SMILES) | Dye released from gel made with multiply-labeled 4-PEG-SH macromer [1] | Storage modulus G′ versus loss modulus G″ [2]
 | COC(=O)C1=C(C(=O)OC)C2(CNC(=O)CCCC(=O)NCC34OC(C(C(=O)OC)=C3C(=O)OC)C3OC34)OC1C1OC12 (stereo not drawn) [Linker 8, Tetramethyl 1,1′-((glutaroylbis(azanediyl))bis(methylene))bis(3,8-dioxatricyclo[3.2.1.0^2,4]oct-6-ene-6,7-dicarboxylate)] | up to 50% | G″ was negligible in comparison with G′
> 2.5 | COC(=O)C1=C(C(=O)OC)C2(CNC(=O)CCCC(=O)NCC34C=CC(O3)C(C(=O)OC)=C4C(=O)OC)C=CC1O2 [Linker 7a, Tetramethyl 1,1′-((glutaroylbis(azanediyl))bis(methylene))bis(7-oxabicyclo[2.2.1]hepta-2,5-diene-2,3-dicarboxylate)] |  | 
